In assay [1] the target is T1, human melatonin MT2 receptor (Homo sapiens, UniProt P49286).
T1 construct: gene MTNR1B; receptor stably expressed in transfected CHO cells, membrane preparation
T1 sequence (P49286 1-362): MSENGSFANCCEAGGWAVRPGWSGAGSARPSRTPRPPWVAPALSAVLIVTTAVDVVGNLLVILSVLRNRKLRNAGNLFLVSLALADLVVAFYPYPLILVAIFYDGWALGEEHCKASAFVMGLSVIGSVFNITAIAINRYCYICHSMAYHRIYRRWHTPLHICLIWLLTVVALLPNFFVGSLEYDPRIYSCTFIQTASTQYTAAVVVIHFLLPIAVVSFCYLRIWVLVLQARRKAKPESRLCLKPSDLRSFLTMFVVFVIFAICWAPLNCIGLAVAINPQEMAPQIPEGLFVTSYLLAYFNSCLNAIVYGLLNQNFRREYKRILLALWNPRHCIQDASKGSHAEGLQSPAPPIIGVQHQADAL
As to the kind of experiment: […]-[…]iodomelatonin displacement, CHO membranes. Type of assay: binding.

The target of assay [2] is T2, human melatonin MT1 receptor (Homo sapiens, UniProt P48039).
T2 construct: gene MTNR1A; receptor stably expressed in transfected CHO cells, membrane preparation
As to the kind of experiment: […]-[…]iodomelatonin displacement, CHO membranes. Type of assay: binding.

Counter-ions that a name gives are not always drawn. Where only a bound is given, the exact number is not on record here.

T2 sequence (P48039 whole entry): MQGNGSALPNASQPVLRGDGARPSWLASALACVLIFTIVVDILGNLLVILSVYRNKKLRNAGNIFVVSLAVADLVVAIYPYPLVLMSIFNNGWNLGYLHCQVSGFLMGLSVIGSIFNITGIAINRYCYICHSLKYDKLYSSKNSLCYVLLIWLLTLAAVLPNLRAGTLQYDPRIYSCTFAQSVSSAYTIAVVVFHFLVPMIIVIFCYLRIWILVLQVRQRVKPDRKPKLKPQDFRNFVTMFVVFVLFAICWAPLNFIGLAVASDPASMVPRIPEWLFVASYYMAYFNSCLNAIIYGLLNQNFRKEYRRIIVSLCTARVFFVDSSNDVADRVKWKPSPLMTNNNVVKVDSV

Consider `COc1ccc2cccc(CCN3CCCC3=O)c2c1` [7b], for which the Ki (in general, the dissociation constant of the complex between target and ligand, obtained from inhibition or displacement) in assay [1] is 2.1 ± 0.01 nM; in assay [2], 68.5 ± 18.2 nM.

In the case of `COc1ccc2cccc3c2c1CN(C(C)=O)CC3` [9a, 1-(10-Methoxy-1,2,3,4-tetrahydro-naphto[1,8-cd]azepin-2-yl)ethanone], the Ki in assay [1] worked out at 469 ± 44 nM; in assay [2], 2500 ± 57 nM.

Turning to `COc1ccc2cccc(CC3NC(=O)NC3=O)c2c1` (stereo not shown) [compound 12, 5-[(7-Methoxynaphth-1-yl)methyl]-imidazolidin-2,4-diones], the Ki was 141 ± 31 nM in assay [1] and 2170 ± 63 nM in assay [2].

On to `COc1ccc2cccc(CCNc3nccs3)c2c1` [compound 13, 2-[2-(7-Methoxynaphth-1-yl)]-ethylamino]-1,3-thiazole hydrochloride], for which the inhibition constant (Ki) in assay [1] stood at 12.5 ± 0.4 nM; in assay [2] it was 33.9 ± 8.1 nM.

Regarding `COc1ccc2cccc(Cc3noc(=O)[nH]3)c2c1` [compound 4, 3-[(7-Methoxynaphth-1-yl)methyl]-1,2,4-oxadiazole-5(4H)-one], the Ki in assay [1] amounted to 25.2 ± 10.7 nM; in assay [2], 80 ± 16 nM.

In the case of `COc1ccc2ccc3c(c2c1)CCN(C(C)=O)C3` [9b, 1-(9-Methoxy-1,2,3,4-tetrahydro-benzo[f]isoquinolein-3-yl)ethanone], the figures for the inhibition constant (Ki) in assay [1] and in assay [2] were 800 ± 59 nM and 3000 ± 27 nM, respectively.

Take `COc1ccc2cccc(Cc3nn[nH]n3)c2c1` [compound 5, 5-(7-Methoxynaphth-1-ylmethyl)-1H-tetrazole]: the values for the Ki in assay [1] and in assay [2] were 190 ± 84 nM and 380 ± 114 nM, respectively.

Consider `COc1ccc2cccc(CCNc3cc(C)on3)c2c1` [compound 15, 3-[2-(7-Methoxynaphth-1-yl)ethylamino]-5-methyl-1,2-isoxazole hydrochloride], for which the inhibition constant Ki in assay [1] was 20.3 ± 3.9 nM; in assay [2], 48.4 ± 11.2 nM.

With `COc1ccc2cccc(CC3=NOS(=O)N3)c2c1` (stereo not shown) [compound 3, 4-[(7-Methoxynaphth-1-yl)methyl]-3H-1,2,3,5-oxathiadiazole 2-oxide], the inhibition constant (Ki) in assay [1] is 1300 nM; in assay [2], above 1000 nM.

Consider `COc1ccc2cccc(CCNc3ncc(C)s3)c2c1` [compound 14, 2-[2-(7-Methoxynaphth-1-yl)ethylamino]-5-methyl-1,3-thiazole], for which the Ki in assay [1] turned out to be 354 ± 32 nM; in assay [2] it was 389 ± 121 nM.

On to `COc1ccc2cccc(CCN3CCOC3=O)c2c1` [7a], for which the inhibition constant Ki in assay [1] worked out at 6 ± 0.2 nM; in assay [2] it was 113 ± 18 nM.

Source of the values: article PMC6269769, “Novel Conformationally Constrained Analogues of Agomelatine as New Melatoninergic Ligands” (Molecules, 2012).
